{"source": "the supplement of paper PMC10307832", "test_in_all_cases": "relative viability (nuclei count vs DMSO), 5 days (fraction); higher = more cells survive", "key": {"[1]": {"compound": "CC1=CC(=NN1)NC2=CC(=NC(=N2)/C=C/C3=CC=CC=C3)N4CCN(CC4)C + CC(C)C[C@H](NC(=O)[C@H](Cc1ccccc1)NC(=O)c1cnccn1)B(O)O [Bortezomib] (partner 0.002 µM)", "in_short": "(§1)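 Cells from lung cancer lines were seeded into 1536-well plates and, one day later, dosed by pin tool. Treatments were either a single drug or a fixed dose of an anchor drug with five library-drug doses (not always all listed) in √10 steps. After 5 days, nuclei were stained in a one-step fixation (final 0.05% Triton X-100, 1% formaldehyde, 1 ug/ml Hoechst) and counted on 4× images, and relative viability is the treated-to-vehicle nuclei ratio, as the median of duplicate plates.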"}, "[2]": {"compound": "CC(C)C[C@H](NC(=O)[C@H](Cc1ccccc1)NC(=O)c1cnccn1)B(O)O [Bortezomib] + NC(=O)Nc1cc(-c2cccc(F)c2)sc1C(=O)N[C@H]1CCCNC1 [AZD7762] (partner 0.2 µM)", "in_short": "as §1"}, "[3]": {"compound": "CC1=CC(=NN1)NC2=CC(=NC(=N2)/C=C/C3=CC=CC=C3)N4CCN(CC4)C + Nc1nc2[nH]cc(CCc3ccc(C(=O)N[C@@H](CCC(=O)O)C(=O)O)cc3)c2c(=O)[nH]1 [Pemetrexed] (partner 0.2 µM)", "in_short": "as §1"}, "[4]": {"compound": "CC(C)C[C@H](NC(=O)[C@H](Cc1ccccc1)NC(=O)c1cnccn1)B(O)O [Bortezomib] + CS(=O)(=O)N1CCN(Cc2cc3nc(-c4cccc5[nH]ncc45)nc(N4CCOCC4)c3s2)CC1 [Pictilisib] (partner 1 µM)", "in_short": "as §1"}}}
{"cell line": "NCI-H23", "values": [{"measurement": "relative viability", "setting": "[1]; first compound 0.08 µM", "value": 0.909}, {"measurement": "relative viability", "setting": "[1]; first compound 0.253 µM", "value": 0.949}, {"measurement": "relative viability", "setting": "[1]; first compound 0.8 µM", "value": 0.826}, {"measurement": "relative viability", "setting": "[1]; first compound 2.53 µM", "value": 0.196}, {"measurement": "relative viability", "setting": "[1]; first compound 8 µM", "value": 0.139}, {"measurement": "relative viability", "setting": "[2]; first compound 0.0002 µM", "value": 0.17}, {"measurement": "relative viability", "setting": "[2]; first compound 0.002 µM", "value": 0.308}, {"measurement": "relative viability", "setting": "[2]; first compound 0.006325 µM", "value": 0.25}, {"measurement": "relative viability", "setting": "[2]; first compound 0.02 µM", "value": 0.0879}, {"measurement": "relative viability", "setting": "[3]; first compound 0.08 µM", "value": 0.508}, {"measurement": "relative viability", "setting": "[3]; first compound 0.253 µM", "value": 0.768}, {"measurement": "relative viability", "setting": "[3]; first compound 0.8 µM", "value": 0.542}, {"measurement": "relative viability", "setting": "[3]; first compound 2.53 µM", "value": 0.215}, {"measurement": "relative viability", "setting": "[3]; first compound 8 µM", "value": 0.118}, {"measurement": "relative viability", "setting": "[4]; first compound 0.000632 µM", "value": 0.407}, {"measurement": "relative viability", "setting": "[4]; first compound 0.002 µM", "value": 0.381}, {"measurement": "relative viability", "setting": "[4]; first compound 0.006325 µM", "value": 0.144}, {"measurement": "relative viability", "setting": "[4]; first compound 0.02 µM", "value": 0.131}]}
{"cell line": "NCI-H647", "values": [{"measurement": "relative viability", "setting": "[1]; first compound 0.08 µM", "value": 0.807}, {"measurement": "relative viability", "setting": "[1]; first compound 0.253 µM", "value": 1.1}, {"measurement": "relative viability", "setting": "[1]; first compound 0.8 µM", "value": 0.957}, {"measurement": "relative viability", "setting": "[1]; first compound 2.53 µM", "value": 0.068}, {"measurement": "relative viability", "setting": "[1]; first compound 8 µM", "value": 0.0571}, {"measurement": "relative viability", "setting": "[2]; first compound 0.0002 µM", "value": 0.405}, {"measurement": "relative viability", "setting": "[2]; first compound 0.000632 µM", "value": 0.447}, {"measurement": "relative viability", "setting": "[2]; first compound 0.002 µM", "value": 0.419}, {"measurement": "relative viability", "setting": "[2]; first compound 0.006325 µM", "value": 0.0227}, {"measurement": "relative viability", "setting": "[2]; first compound 0.02 µM", "value": 0.0188}, {"measurement": "relative viability", "setting": "[3]; first compound 0.08 µM", "value": 0.2}, {"measurement": "relative viability", "setting": "[3]; first compound 0.253 µM", "value": 0.174}, {"measurement": "relative viability", "setting": "[3]; first compound 0.8 µM", "value": 0.168}, {"measurement": "relative viability", "setting": "[3]; first compound 2.53 µM", "value": 0.0748}, {"measurement": "relative viability", "setting": "[3]; first compound 8 µM", "value": 0.0585}, {"measurement": "relative viability", "setting": "[4]; first compound 0.0002 µM", "value": 0.331}, {"measurement": "relative viability", "setting": "[4]; first compound 0.000632 µM", "value": 0.287}, {"measurement": "relative viability", "setting": "[4]; first compound 0.002 µM", "value": 0.364}, {"measurement": "relative viability", "setting": "[4]; first compound 0.006325 µM", "value": 0.0521}, {"measurement": "relative viability", "setting": "[4]; first compound 0.02 µM", "value": 0.0347}]}
{"cell line": "201T", "values": [{"measurement": "relative viability", "setting": "[1]; first compound 0.08 µM", "value": 1.11}, {"measurement": "relative viability", "setting": "[1]; first compound 0.253 µM", "value": 1.17}, {"measurement": "relative viability", "setting": "[1]; first compound 0.8 µM", "value": 1.06}, {"measurement": "relative viability", "setting": "[1]; first compound 2.53 µM", "value": 1.02}, {"measurement": "relative viability", "setting": "[1]; first compound 8 µM", "value": 1.01}, {"measurement": "relative viability", "setting": "[2]; first compound 0.0002 µM", "value": 0.602}, {"measurement": "relative viability", "setting": "[2]; first compound 0.000632 µM", "value": 0.684}, {"measurement": "relative viability", "setting": "[2]; first compound 0.002 µM", "value": 0.59}, {"measurement": "relative viability", "setting": "[2]; first compound 0.006325 µM", "value": 0.661}, {"measurement": "relative viability", "setting": "[2]; first compound 0.02 µM", "value": 0.38}, {"measurement": "relative viability", "setting": "[3]; first compound 0.08 µM", "value": 0.31}, {"measurement": "relative viability", "setting": "[3]; first compound 0.253 µM", "value": 0.318}, {"measurement": "relative viability", "setting": "[3]; first compound 0.8 µM", "value": 0.376}, {"measurement": "relative viability", "setting": "[3]; first compound 2.53 µM", "value": 0.327}, {"measurement": "relative viability", "setting": "[3]; first compound 8 µM", "value": 0.298}, {"measurement": "relative viability", "setting": "[4]; first compound 0.0002 µM", "value": 0.677}, {"measurement": "relative viability", "setting": "[4]; first compound 0.000632 µM", "value": 0.707}, {"measurement": "relative viability", "setting": "[4]; first compound 0.002 µM", "value": 0.698}, {"measurement": "relative viability", "setting": "[4]; first compound 0.006325 µM", "value": 0.684}, {"measurement": "relative viability", "setting": "[4]; first compound 0.02 µM", "value": 0.541}]}
{"cell line": "NCI-H1734", "values": [{"measurement": "relative viability", "setting": "[1]; first compound 0.08 µM", "value": 0.814}, {"measurement": "relative viability", "setting": "[1]; first compound 0.253 µM", "value": 0.999}, {"measurement": "relative viability", "setting": "[1]; first compound 0.8 µM", "value": 0.731}, {"measurement": "relative viability", "setting": "[1]; first compound 2.53 µM", "value": 0.234}, {"measurement": "relative viability", "setting": "[1]; first compound 8 µM", "value": 0.13}, {"measurement": "relative viability", "setting": "[2]; first compound 0.0002 µM", "value": 0.563}, {"measurement": "relative viability", "setting": "[2]; first compound 0.000632 µM", "value": 0.541}, {"measurement": "relative viability", "setting": "[2]; first compound 0.002 µM", "value": 0.57}, {"measurement": "relative viability", "setting": "[2]; first compound 0.006325 µM", "value": 0.116}, {"measurement": "relative viability", "setting": "[2]; first compound 0.02 µM", "value": 0.0989}, {"measurement": "relative viability", "setting": "[3]; first compound 0.08 µM", "value": 0.409}, {"measurement": "relative viability", "setting": "[3]; first compound 0.253 µM", "value": 0.384}, {"measurement": "relative viability", "setting": "[3]; first compound 0.8 µM", "value": 0.409}, {"measurement": "relative viability", "setting": "[3]; first compound 2.53 µM", "value": 0.238}, {"measurement": "relative viability", "setting": "[3]; first compound 8 µM", "value": 0.199}, {"measurement": "relative viability", "setting": "[4]; first compound 0.0002 µM", "value": 0.483}, {"measurement": "relative viability", "setting": "[4]; first compound 0.000632 µM", "value": 0.301}, {"measurement": "relative viability", "setting": "[4]; first compound 0.002 µM", "value": 0.36}, {"measurement": "relative viability", "setting": "[4]; first compound 0.006325 µM", "value": 0.224}, {"measurement": "relative viability", "setting": "[4]; first compound 0.02 µM", "value": 0.128}]}
{"cell line": "NCI-H596", "values": [{"measurement": "relative viability", "setting": "[1]; first compound 0.08 µM", "value": 1.2}, {"measurement": "relative viability", "setting": "[1]; first compound 0.253 µM", "value": 1.01}, {"measurement": "relative viability", "setting": "[1]; first compound 0.8 µM", "value": 0.756}, {"measurement": "relative viability", "setting": "[1]; first compound 2.53 µM", "value": 0.616}, {"measurement": "relative viability", "setting": "[1]; first compound 8 µM", "value": 0.268}, {"measurement": "relative viability", "setting": "[2]; first compound 0.0002 µM", "value": 0.983}, {"measurement": "relative viability", "setting": "[2]; first compound 0.000632 µM", "value": 1.22}, {"measurement": "relative viability", "setting": "[2]; first compound 0.002 µM", "value": 1.15}, {"measurement": "relative viability", "setting": "[2]; first compound 0.006325 µM", "value": 0.634}, {"measurement": "relative viability", "setting": "[2]; first compound 0.02 µM", "value": 0.205}, {"measurement": "relative viability", "setting": "[3]; first compound 0.08 µM", "value": 0.468}, {"measurement": "relative viability", "setting": "[3]; first compound 0.253 µM", "value": 0.5}, {"measurement": "relative viability", "setting": "[3]; first compound 0.8 µM", "value": 0.456}, {"measurement": "relative viability", "setting": "[3]; first compound 2.53 µM", "value": 0.408}, {"measurement": "relative viability", "setting": "[3]; first compound 8 µM", "value": 0.228}, {"measurement": "relative viability", "setting": "[4]; first compound 0.0002 µM", "value": 0.513}, {"measurement": "relative viability", "setting": "[4]; first compound 0.000632 µM", "value": 0.369}, {"measurement": "relative viability", "setting": "[4]; first compound 0.002 µM", "value": 0.327}, {"measurement": "relative viability", "setting": "[4]; first compound 0.006325 µM", "value": 0.15}, {"measurement": "relative viability", "setting": "[4]; first compound 0.02 µM", "value": 0.128}]}
